Experimental data from patent publication US11413291B2, “Pesticidally active heterocyclic derivatives with sulfur containing substituents” (SYNGENTA PARTICIPATIONS AG, priority 2017, dated 2022).

Experiments:
Format in all cases: in vivo
[1] = test system: Spodoptera littoralis; experiment: Example B1: Spodoptera littoralis, sprayed cotton leaf discs; conditions: foliar, 72 h, application rate 200 ppm, L1 larvae, 3 days after infestation
Experimental: Cotton leaf discs were placed onto agar in 24-well microtiter plates and sprayed with aqueous test solutions prepared from 10′000 ppm DMSO stock solutions. After drying the leaf discs were infested with five L1 larvae. The samples were assessed for mortality, anti-feeding effect, and growth inhibition in comparison to untreated samples 3 days after infestation. Control of Spodoptera littoralis by a test sample is given when at least one of the categories mortality, anti-feedant effect, and growth inhibition is higher than the untreated sample.

[2] = test system: Spodoptera littoralis; experiment: Example B2: Spodoptera littoralis, systemic uptake via lettuce roots from agar; conditions: 144 h, test rate 12.5 ppm, 6 days after infestation, read-out: effect in at least one of the three categories (mortality, anti-feeding, or growth inhibition)
Text: Test compounds were applied by pipette from 10′000 ppm DMSO stock solutions into 24-well plates and mixed with agar. Lettuce seeds were placed onto the agar and the multi well plate was closed by another plate which contained also agar. After 7 days the compound was absorbed by the roots and the lettuce grew into the lid plate. The lettuce leaves were then cut off into the lid plate. Spodoptera eggs were pipetted through a plastic stencil onto a humid gel blotting paper and the lid plate was closed with it. The samples were assessed for mortality, anti-feedant effect and growth inhibition in comparison to untreated samples 6 days after infestation.

[3] = test system: Plutella xylostella; experiment: Example B3: Plutella xylostella, artificial diet; conditions: 120 h, application rate 200 ppm, L2 larvae, 5 days after infestation, read-out: effect in at least one of the two categories (mortality or growth inhibition)
Experimental: (§1) 24-well microtiter plates with artificial diet were treated with aqueous test solutions prepared from 10,000 ppm DMSO stock solutions by pipetting. After drying, the plates were infested with L2 larvae (10 to 15 per well). The samples were assessed for mortality and growth inhibition in comparison to untreated samples 5 days after infestation.

[4] = test system: Diabrotica balteata; experiment: Example B4: Diabrotica balteata, sprayed maize sprouts; conditions: 96 h, application rate 200 ppm, L2 larvae, 4 days after infestation, read-out: effect in at least one of the two categories (mortality or growth inhibition)
Experimental: as §1, with “Maize sprouts placed onto an agar layer in 24-well” for “24-well”, “plates” for “plates with artificial diet”, “spraying.” for “pipetting.”, “(6” for “(10”, “10” for “15”, “4” for “5”

[5] = test system: Myzus persicae; experiment: Example B5: Myzus persicae feeding/contact, sprayed sunflower leaf discs; conditions: Myzus persicae, foliar, 144 h; application rate 200 ppm; mixed ages; 6 days after infestation
Experimental: Sunflower leaf discs were placed onto agar in a 24-well microtiter plate and sprayed with aqueous test solutions prepared from 10,000 ppm DMSO stock solutions. After drying, the leaf discs were infested with an aphid population of mixed ages. The samples were assessed for mortality 6 days after infestation.

[6] = test system: Myzus persicae; experiment: Example B6: Myzus persicae systemic, pea seedling roots in test solution; conditions: Myzus persicae, 144 h; test rate 24 ppm; mixed ages; 6 days
Experimental: Roots of pea seedlings infested with an aphid population of mixed ages were placed directly into aqueous test solutions prepared from 10,000 DMSO stock solutions. The samples were assessed for mortality 6 days after placing seedlings into test solutions.

[7] = test system: Bemisia tabaci; experiment: Example B7: Bemisia tabaci, sprayed cotton leaf discs; conditions: foliar, 144 h, application rate 200 ppm, adult white flies, 6 days after incubation
Experimental: Cotton leaf discs were placed on agar in 24-well microtiter plates and sprayed with aqueous test solutions prepared from 10,000 ppm DMSO stock solutions. After drying the leaf discs were infested with adult white flies. The samples were checked for mortality 6 days after incubation.

[8] = test system: Euschistus heros; experiment: Example B8: Euschistus heros, sprayed soybean leaves; conditions: Euschistus heros, 120 h; application rate 200 ppm; N2 nymphs; 5 days after infestation; read-out: effect in at least one of the two categories (mortality or growth inhibition)
Experimental: Soybean leaves on agar in 24-well microtiter plates were sprayed with aqueous test solutions prepared from 10,000 ppm DMSO stock solutions. After drying the leaves were infested with N2 nymphs. The samples were assessed for mortality and growth inhibition in comparison to untreated samples 5 days after infestation.

[9] = test system: Tetranychus urticae; experiment: Example B10: Tetranychus urticae, sprayed bean leaf discs; conditions: foliar, 192 h, application rate 200 ppm, mixed population (mobile stages), 8 days after infestation
Experimental: Bean leaf discs on agar in 24-well microtiter plates were sprayed with aqueous test solutions prepared from 10,000 ppm DMSO stock solutions. After drying the leaf discs were infested with a mite population of mixed ages. The samples were assessed for mortality on mixed population (mobile stages) 8 days after infestation.

[10] = test system: Frankliniella occidentalis; experiment: Example B11: Frankliniella occidentalis, sprayed sunflower leaf discs; conditions: foliar, 168 h, application rate 200 ppm, mixed ages, 7 days after infestation
Experimental: Sunflower leaf discs were placed on agar in 24-well microtiter plates and sprayed with aqueous test solutions prepared from 10,000 DMSO stock solutions. After drying the leaf discs were infested with a Frankliniella population of mixed ages. The samples were assessed for mortality 7 days after infestation.

CCn1c(C(F)(F)F)cc2nc(-c3ncc(C(C)(C)C#N)cc3S(=O)(=O)CC)n(C)c2c1=O [Compound P3, 2-[6-[5-ethyl-3-methyl-4-oxo-6-(trifluoromethyl)imidazo[4,5-c]pyridin-2-yl]-5-ethylsulfonyl-3-pyridyl]-2-methyl-propanenitrile]
≥ 80%: percent control (mortality, anti-feedant effect or growth inhibition) at 200 ppm [1] | percent effect (mortality, anti-feeding or growth inhibition) at 12.5 ppm [2] | percent effect (mortality or growth inhibition) at 200 ppm [3] | percent effect (mortality or growth inhibition) at 200 ppm [4] | mortality at 200 ppm [5] | mortality at 24 ppm [6] | mortality at 200 ppm [7] | percent effect (mortality or growth inhibition) at 200 ppm [8] | mortality at 200 ppm [9] | mortality at 200 ppm [10]

CCS(=O)(=O)c1cc(C(C)(C)C#N)cnc1-c1cn2ccc(C(F)(F)C(F)(F)F)cc2n1 [Compound P6, 2-[5-ethylsulfonyl-6-[7-(1,1,2,2,2-pentafluoroethyl)imidazo[1,2-a]pyridin-2-yl]-3-pyridyl]-2-methyl-propanenitrile]
≥ 80%: percent control (mortality, anti-feedant effect or growth inhibition) at 200 ppm [1] | percent effect (mortality or growth inhibition) at 200 ppm [3] | percent effect (mortality or growth inhibition) at 200 ppm [4] | mortality at 200 ppm [5] | mortality at 200 ppm [7] | mortality at 200 ppm [9] | mortality at 200 ppm [10]

CCS(=O)(=O)c1cc(C(C)(C)C#N)cnc1-c1nc2cc(C(F)(F)F)n(CC(F)(F)F)c(=O)c2n1C [Compound P11, 2-[5-ethylsulfonyl-6-[3-methyl-4-oxo-5-(2,2,2-trifluoroethyl)-6-(trifluoromethyl)imidazo[4,5-c]pyridin-2-yl]-3-pyridyl]-2-methyl-propanenitrile]
≥ 80%: percent control (mortality, anti-feedant effect or growth inhibition) at 200 ppm [1] | percent effect (mortality or growth inhibition) at 200 ppm [3] | percent effect (mortality or growth inhibition) at 200 ppm [4] | mortality at 200 ppm [5] | mortality at 200 ppm [7] | mortality at 200 ppm [10]

CCS(=O)(=O)c1cc(C(C)(C)C#N)ccc1-c1nc2cc(C(F)(F)F)n(C3CC3)c(=O)c2n1C [Compound P12, 2-[4-[5-cyclopropyl-3-methyl-4-oxo-6-(trifluoromethyl)imidazo[4,5-c]pyridin-2-yl]-3-ethylsulfonyl-phenyl]-2-methyl-propanenitrile]
≥ 80%: percent control (mortality, anti-feedant effect or growth inhibition) at 200 ppm [1] | percent effect (mortality or growth inhibition) at 200 ppm [3] | percent effect (mortality or growth inhibition) at 200 ppm [4] | mortality at 200 ppm [5] | mortality at 200 ppm [7] | mortality at 200 ppm [9] | mortality at 200 ppm [10]

CCS(=O)(=O)c1cc(C(C)(C)C#N)cnc1-c1nc2cc(C(F)(F)F)n(C3CC3)c(=O)c2n1C [Compound P17, 2-[6-[5-cyclopropyl-3-methyl-4-oxo-6-(trifluoromethyl)imidazo[4,5-c]pyridin-2-yl]-5-ethylsulfonyl-3-pyridyl]-2-methyl-propanenitrile]
≥ 80%: percent control (mortality, anti-feedant effect or growth inhibition) at 200 ppm [1] | percent effect (mortality or growth inhibition) at 200 ppm [3] | percent effect (mortality or growth inhibition) at 200 ppm [4] | mortality at 200 ppm [5] | mortality at 24 ppm [6] | mortality at 200 ppm [7] | mortality at 200 ppm [9] | mortality at 200 ppm [10]
